Test results published in patent US20040023924A1, “Use of xyloglucan polymers and oligomers, and derivative compounds, as phytosanitary products and biofertilizers” (priority 2000, published 2004).

How the values were obtained:
[1] = test system: Rubus fruticosus protoplasts; assay: Elicitation of an oxidative burst: generation of H2O2 (pyranine quenching); format: cell-based; conditions: 25° C.
Procedure: Preparation of Rubus fruticosus protoplasts according to Vargas-Rechia (1998). The protoplast yield is of the order of 70 to 85% of the initial number of cells used; the viability of the protoplasts, of the order of 90 to 95%, was checked using Evans blue indicator.
H2O2 assay according to Apostol et al. (1989). Incubation at different temperatures of 1.10^6 protoplasts in microplate wells in the presence of 2 μM pyranine λex 405 nm, λcm 512 nm), of the elicitor (0 to 100 μM): 2′-fucosyl-lactose (compound A), xyloglucan XXFGol, corresponding to the reduced form of fucosylated nonasaccharide of which the sugar X4 is in reduced form (compound B). The variations in pyranine fluorescence (ΔF512 min^−1) allow H2O2 assay.
Evaluation of the experimental data: The reaction rate is given by (ΔF512 min^−1). At least three kinetic curves are plotted per sample and per experimental condition. One point on the graph corresponds to the slope of the regression curve deduced from at least 6 kinetic curves.
The oxidative “burst” is evaluated according to the “quenching ” of the pyranine at 25° C.; the 100% reference value corresponds to the fluorescence in the controls (non-elicited protoplast suspensions)

vine = assay: Induction of cold resistance in the vine (cold protection index after foliar spraying); format: in vivo, vine (variety Chenin); conditions: vine plants
Procedure: Plants originating from different vine varieties (Chenin, Grolleau, Carignan, Cabernet sauvignon, Cabernet Sauvignon, Pinot noir, Merlot, Chardonnay, Gamay etc.) are used for the study. Each sample, comprising 5 to 10 plants, is treated with foliar spraying at the end of the bud development (starting from vegetative stage 7 on the BBCH scale), or during the inflorescence development period (starting from vegetative stage 12) or at the start of flowering (as from stage 19), with the elicitor (oligomer: XXFG; derivative: 2′-fucosyl lactose) in solution at a variable dose (0.03 mg/l ≦dose≦3.3 mg/l; the spraying of 2.5 ml of solution per plant is carried out using a hand sprayer (deviation of +/−1%).
After treatment, the plants are exposed to cold stress of variable duration and intensity (for example, temperature varying from −2° C. to −5° C.; duration less than or equal to 240 minutes).
After exposure to the cold, the plants are placed in a climatic chamber at 20° C. with a 12-hour day/night alternation. […] The effects of the cold are evaluated by observing the foliar necroses induced by frost and the plants are kept for several months in order to monitor their subsequent development.
The proportion P (%) of foliar necroses observed 3 hours or 24 hours or 48 hours or 72 hours after the cold stress is counted, and the results are expressed by the protection index I=(100-P) %. […]

C[C@@H]1O[C@@H](O[C@H]2[C@H](O[C@H]3[C@H](O)[C@@H](O)[C@H](O)O[C@@H]3CO)O[C@H](CO)[C@H](O)[C@@H]2O)[C@@H](O)[C@H](O)[C@@H]1O [compound A, α-L-Fuc(1→2)β-D-Gal(1→4)β-D-Glc]
Peroxide accumulation, effect of temperature ([1]; 10 nM, 20° C., 15° C., 10° C.): lower at a low temperature | Elicitor dose of optimal response, generation of H2O2 ([1]; pyranine quenching): 10 nM | Optimal response, generation of H2O2 (100% = non-elicited controls) ([1]; at the optimal dose): 225% | Cold-resistance-inducer effect, efficiency compared with XXFG (vine): equal or slightly lower efficiency
